According to patent US20230346827A1 (priority 2020, published 2023):

Assays:
[1] = system: Human trabecular meshwork cells; assay: Fibronectin immunofluorescence in TGFβ2-stimulated trabecular meshwork cells; format: cell-based; conditions: TGFβ2 1.0 ng/ml + LMW-DS 4.0 µM, 72 hours
Description: Human trabecular meshwork cells (TMC-6590; ScienCell Research Laboratories, Carlsbad, CA) were cultured in TMC (6591; ScienCell Research Laboratories) complete medium and maintained at 37° C. in 5% CO2 until reaching 80-90% confluency. Cells were plated at densities of 5000-10000 cells per well in Greiner-Bio Cell 96 Well black Cell Culture Microplates (655090, Sigma) and left to adhere overnight. The following day cells were treated with TGFβ2 (1.0 ng/ml; Preprotech) and/or LMW-DS (4.0 µM; Tikomed AB) under serum free conditions for 72 hrs.
After 72 hrs treatments, cells were fixed using 4% PFA in PBS (28908, Thermo Fisher Scientific) for 10 minutes, washed with PBS and then washed with PBS containing saponin-based permeabilization buffer (00-8333-56, Thermo Fisher Scientific). Cells were then immunostained with anti-human Fibronectin Alexa Fluor® 488 (53-9869-82, Thermo Fisher Scientific) and nuclear stain Hoeschst 33342 (H21492, Thermo Fisher Scientific) in permeabilizing buffer in the dark for 1 hr at room temperature. […] Images were analyzed using the Yokogawa image analysis software.

human primary cells = assay: BioMAP Diversity PLUS panel (12 human primary cell-based systems)
Description: Four concentrations of LMW-DS (ILB®, Tikomed AB, Viken, Sweden, WO 2016/076780; 150 nM, 440 nM, 1.3 µM, 4 µM) were investigated in the BioMAP® Diversity PLUS panel by Eurofins.
Human primary cells in BioMAP systems are used at early passage (passage 4 or earlier) to minimize adaptation to cell culture conditions and preserve physiological signaling responses. All cells are from a pool of multiple donors (n = 2 - 6), commercially purchased and handled according to the recommendations of the manufacturers. Human blood derived CD14+ monocytes are differentiated into macrophages in vitro before being added to the Mphg system. Abbreviations are used as follows: Human umbilical vein endothelial cells (HUVEC), Peripheral blood mononuclear cells (PBMC), Human neonatal dermal fibroblasts (HDFn), B cell receptor (BCR), T cell receptor (TCR) and Toll-like receptor (TLR).
Cell types and stimuli used in each system are as follows: 3C system [HUVEC + (IL-1β, TNFα and IFNy)], 4H system [HUVEC + (IL-4 and histamine)], LPS system [PBMC and HUVEC + LPS (TLR4 ligand)], SAg system [PBMC and HUVEC + TCR ligands], BT system [CD19+ B cells and PBMC + (α-IgM and TCR ligands)], BF4T system [bronchial epithelial cells and HDFn + (TNFα and IL-4)], BE3C system [bronchial epithelial cells + (IL-1β, TNFα and IFNy)], CASM3C system [coronary artery smooth muscle cells + (IL-1 β, TNFα and IFNy)], HDF3CGF system [HDFn + (IL-1β, TNFα, IFNy, EGF, bFGF and PDGF-BB)], KF3CT system [keratinocytes and HDFn + (IL-1β, TNFα, IFNy and TGFβ)], MyoF system [differentiated lung myofibroblasts + (TNFα and TGFβ)] and Mphg system [HUVEC and M1 macrophages + Zymosan (TLR2 ligand)].
Systems are derived from either single cell types or co-culture systems. Adherent cell types are cultured in 96 or 384-well plates until confluence, followed by the addition of PBMC (SAg and LPS systems). The BT system consists of CD19+ B cells co-cultured with PBMC and stimulated with a BCR activator and low levels of TCR stimulation. […] Each plate contains drug controls (e.g., legacy control test agent colchicine at 1.1 µM), negative controls (e.g., non-stimulated conditions) and vehicle controls (e.g., 0.1% DMSO) appropriate for each system. Direct ELISA is used to measure biomarker levels of cell-associated and cell membrane targets. Soluble factors from supernatants are quantified using either HTRF® detection, bead-based multiplex immunoassay or capture ELISA. Overt adverse effects of test agents on cell proliferation and viability (cytotoxicity) are detected by sulforhodamine B (SRB) staining, for adherent cells, and alamarBlue® reduction for cells in suspension. For proliferation assays, individual cell types are cultured at subconfluence and measured at time points optimized for each system (48-hrs: 3C and CASM3C systems; 72-hrs: BT and HDF3CGF systems; 96-hrs: SAg system). Cytotoxicity for adherent cells is measured by SRB (24-hrs: 3C, 4H, LPS, SAg, BF4T, BE3C, CASM3C, HDF3CGF, KF3CT, and Mphg systems; 48-hrs: MyoF system), and by alamarBlue staining for cells in suspension (24-hrs: SAg system; 42-hrs: BT system) at the time points indicated.
Biomarker measurements in a test agent-treated sample are divided by the average of control samples (at least 6 vehicle controls from the same plate) to generate a ratio that is then log10 transformed. Significance prediction envelopes are calculated using historical vehicle control data at a 95% confidence interval.
Biomarker activities are annotated when 2 or more consecutive concentrations change in the same direction relative to vehicle controls, are outside of the significance envelope and have at least one concentration with an effect size > 20% (|log10 ratio| > 0.1). Biomarker key activities are described as modulated if these activities increase in some systems, but decrease in others. […]

For sodium salt of dextran sulfate [LMW-DS], the “fibronectin levels (quantification of fibronectin staining)” value [1] was 1136 ± 155, the annotated readouts (human primary cells; 150 nM, 440 nM, 1.3 µM, 4 µM) was 25 and the “cytotoxicity for human primary cells” value (human primary cells; at the concentrations tested (150 nM - 4 µM)) was “not cytotoxic”. The “thrombomodulin (TM)” value (human primary cells; hemostasis-related activity) was “increased”, the CD69 (human primary cells; immunomodulatory activity) was “increased” and the M-CSF (human primary cells; immunomodulatory activity) was “decreased”. The “secreted immunoglobulin G (sIgG)” value (human primary cells; immunomodulatory activity) was “decreased”, the “soluble IL-17A (sIL-17A)” value (human primary cells; immunomodulatory activity) was “increased” and the “Eotaxin 3 (Eot3)” value (human primary cells; inflammation-related activity) was “increased”. The I-TAC (human primary cells; inflammation-related activity) was “decreased”, the IL-8 (human primary cells; inflammation-related activity) was “increased” and the IP-10 (human primary cells; inflammation-related activity) was “decreased”. The MCP-1 (human primary cells; inflammation-related activity) was “decreased”, the MIG (human primary cells; inflammation-related activity) was “decreased” and the VCAM-1 (human primary cells; inflammation-related activity) was “decreased”. For the same substance, the sTNFα (human primary cells; inflammation-related activity) was “decreased”, the EGFR (human primary cells; tissue remodeling activity) was “increased” and the MMP-1 (human primary cells; tissue remodeling activity) was “increased”. For the same substance, the PAI-1 (human primary cells; tissue remodeling activity) was “increased”, the uPAR (human primary cells; tissue remodeling activity) was “increased” and the “antiproliferative effect on human primary endothelial cells” value (human primary cells; top concentration only (4 µM)) was “modestly and selectively antiproliferative”.
